Source: patent publication US10751390B2, “Lipidated peptides as neuroprotective agents” (USTAV ORGANICKE CHEMIE A BIOCHEMIE AV CR, V.V.I., priority 2014, dated 2020)

Legend:
Assay type in all cases: in vivo
[1] = system: insulin signaling cascade (PDK-1, Akt, GSK-3β); test: Western blot of insulin signaling cascade in hippocampi of 6-month-old MSG mice after 14-day treatment; conditions: 14 days SC twice a day, liraglutide 0.2 mg/kg, vs saline
Method: (§1) Groups of MSG mice (n=10 animals per group) were for 14 days SC administered with liraglutide at a dose 0.2 mg/kg, or palmitoylated analog of PrRP31 at a dose 5 mg/kg, or palmitoylated analog with PrRP31 with dichlorophenylalanin in position 31 at a dose 5 mg/kg dissolved in saline, twice a day, at 8 a.m. and 6:00 p.m. Control mice (n=10 animals per group), NMRI and MSG, were injected in the same manner with saline (the volume was always 0.2 ml/mouse).
(§2) Overnight (15 hours) fasted mice with ad libitum access to water were weighed, and their plasma glucose concentration was measured using Glucocard glucometer. After decapitation, the brains were dissected on ice, and cut between hemispheres. For immunohistochemical staining the half of the brain was fixed for 24 hours in 4% paraformaldehyde and dehydrated in 70% ethanol, afterward. For the western blot (WB) analysis, the hippocampus was dissected from the second half of the brain, and lysed in cold lysis buffer (62.5 mmol·l^−1 Tris-HCl, pH 6.8 with 1% sodium deoxycholate, 1% Triton X-100 Complete, 50 mmol·l^−1 NaF, 1 mmol·l^−1 Na3VO4), homogenized, sonicated 10 minutes and stored at −20° C. The blood plasma was prepared, and stored at −20° C.
(§3) In homogenized hippocampi the protein level was measured using BCA kit (Pierce, Thermo Fisher Scientific, Rockfor, Ill., USA), then the samples were diluted in sample buffer (62.5 mmol/l Tris-HCl pH 6.8, 10% glycerol, 2% SDS, 0.01% bromfenol blue, 5% merkaptoethanol, 50 mmol/l NaF and 1 mmol/l Na3VO4) to final concentration […]. WB method and analysis of the results were performed according Nagelová et al. (Nagelova et al., 2014).

Tau protein [2] = test: Western blot of Tau phosphorylation in hippocampi of 6-month-old MSG mice after 14-day treatment; conditions: 14 days SC twice a day, liraglutide 0.2 mg/kg, vs saline
Method: as §1, §2, §3

Tau protein [3] = test: Immunohistochemical fluorescent double staining of Tau phosphorylation in CA1 region of hippocampi of MSG mice; conditions: 6-month-old MSG mice, 14 days SC twice a day; liraglutide 0.2 mg/kg, PrRP31 analog 5 mg/kg; epitopes Thr212 and Ser202/Thr205
Method: as §1, §2
To verify the results obtained from WB analysis the immunohistochemical staining was performed. Ten micrometer (10 μm) thick sections were prepared at INSERM, Lille, France. […]

(N-palm)SRTHRHSMEIRTPDINPAWYASRGIRPVGRF-NH2 [palmitoylated analog of PrRP31]
phosphorylation of Akt (Thr308) ([1]; PrRP31 analog 5 mg/kg): more pronounced phosphorylation
activation of kinases implicated in insulin signaling cascade ([1]; PrRP31 analogs 5 mg/kg): Enhanced activation
phosphorylation of GSK-3β (Ser9) ([1]; PrRP31 analogs 5 mg/kg): more pronounced phosphorylation
not-phosphorylated Tau (antibody Tau1) (Tau protein [2]; PrRP31 analog 5 mg/kg): did not show any significant differences among groups
phosphorylation of Tau protein at epitope Ser396 (Tau protein [2]; PrRP31 analogs 5 mg/kg): decreased phosphorylation
phosphorylation of Tau protein at epitope Thr212 (Tau protein [2]; PrRP31 analogs 5 mg/kg): decreased phosphorylation
phosphorylation of Tau protein at epitope Thr231 (Tau protein [2]; PrRP31 analogs 5 mg/kg): decreased phosphorylation
Tau phosphorylation in hippocampal region CA1 (fluorescent signal) (Tau protein [3]): decreased
